Measured values as given in patent US20220274980A1, “PHARMACOLOGICAL INHIBITORS OF THE ENL YEATS DOMAIN” (priority 2019, published 2022).
Read-outs that look alike come from different tables or passages of the source.

Key:
[1] = biological target: T1, ENL YEATS domain (association with H3K27cr) (Homo sapiens, UniProt Q03111); experiment: biochemical
T1 sequence (Q03111 1-148): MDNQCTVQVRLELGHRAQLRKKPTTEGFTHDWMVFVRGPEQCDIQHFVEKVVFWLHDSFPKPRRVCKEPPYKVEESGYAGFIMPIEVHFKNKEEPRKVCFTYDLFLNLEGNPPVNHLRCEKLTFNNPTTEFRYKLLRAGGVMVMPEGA
Protocol: (§1) Protein Production. Double stranded DNA fragments encoding the protein sequence of ENL YEATS(1-148) were synthesized (IDT DNA) for assembly-based cloning into a modified expression vector backbone derived from pET21a (Novagen). The protein was fused to a StrepII-SUMO and 6×His tag on the amino and carboxy terminus, respectively. Transformed BL21(DE3) cells (New England Biolabs) were grown at 37° C. in 2×YT growth medium to an OD600 of 0.6. Protein expression was induced at 25° C. with the addition of isopropyl-β-D-thiogalactopyranoside (IPTG) to a final concentration of 0.4 mM. The culture was harvested by centrifugation following a 20-hour incubation and subsequently purified by immobilized metal affinity chromatography. Cells were resuspended 50 mM Tris-HCl pH 8.0, 300 mM NaCl, 10% glycerol, 10 mM imidazole, 1 mM DTT containing Complete EDTA-free protease inhibitor (Roche) and lysed by two passes through a MicroFluidizer at 10,000 psi. The lysate was clarified by centrifugation at 16,000 rpm for 30 minutes at 4° C. The supernatant was passed over NiNTA agarose (QIAGEN) and the protein was eluted in 50 mM Tris-HCl pH 8.0, 300 mM NaCl, 10% glycerol, 250 mM imidazole, 1 mM DTT. Fractions containing the ENL YEATS(1-148) fusion protein were buffer exchanged into 100 mM Tris-HCl pH 8.0, 150 mM NaCl, 1 mM EDTA, 1 mM DTT using PD10 desalting columns (GE Life Sciences). Ulp1 protease was added to cleave the StrepII-SUMO fusion and the reaction mixture was incubated overnight at 4° C. The cleavage reaction mixture was loaded onto a StrepTrap column (GE Life Sciences) and ENL YEATS(1-148) was recovered in the flow through. BRD4 BD1 was purchased from Cayman (Cat. No. 11720).
(§2) Homogenous time-resolved FRET (HTRF) histone-binding assays. Both HTRF assays were performed by combining recombinant protein and synthetic histone peptide in assay buffer (25 mM HEPES pH 7, 20 mM NaCl, 0.2% Pluronic F-127, and 0.05% BSA) with 1 nM LanthaScreen Eu-anti-His Tag antibody (ThermoFisher, Cat. No, PV5597) and 8.9 nM SureLight allophycocyanin-streptavidin (Perkin Elmer, APC-SA, Cat. No. CR130-100). ENL YEATS was used at 5 nM and BRD4 BD1 was used at 10 nM. ENL assays were performed with H3(13-32)K27cr (13.3 and 100 nM, respectively), custom synthesized at ABclonal (N-terminal biotin, C-terminal amide); BRD4 BD1 assay was performed with 13.3 nM tetra-acetylated H4 (BioVision, Cat. No. 7144-01). Once all reagents were combined (with or without peptide), 10 μL was dispensed per well into black 384-well low-volume plates (Corning, Cat. No. 3821) and drug was added by pin tool transfer (Biomek FX). Assays were incubated for 2 or more hours before measurement of HTRF signal on a PHERAstar plate reader (BMG Labtech; simultaneous dual emission; excitation=337 nm, emission 1=665 nm, emission 2=620 nm). HTRF signal (ratio of emission 1 to emission 2) from vehicle-treated wells (maximum signal) and no-peptide-control wells (minimum signal) were used to calculate percent inhibition for drug-treated wells.

ENL(YEATS)-HiBiT = biological target: T2, ENL(YEATS)-HiBiT (Homo sapiens, UniProt Q03111); experiment: cell-based
T2 sequence (Q03111 1-138 limits assumed): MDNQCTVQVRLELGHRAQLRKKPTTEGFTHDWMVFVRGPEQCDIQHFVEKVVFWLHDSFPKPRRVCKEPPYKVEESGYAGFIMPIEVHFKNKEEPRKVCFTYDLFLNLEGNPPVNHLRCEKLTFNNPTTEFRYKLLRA
Protocol: Cellular thermal shift assay (CETSA). […] Cells were transferred to 384-well (20,000 cells per well in 20 μL) or 1,536-well (3,000 cells per well in 4 μL) plates and drug was transferred using a 100 nL pin tool for 384-well plates or acoustic transfer (Labcyte, Echo Liquid Handler) for 1,536-well plates. Luminescent detection of HiBiT was performed by combining an equal volume of Nano-Glo HiBiT Lytic Reagent (Promega, HiBiT Lytic Detection System, Cat. No. N3040) in each well. […] Briefly, cells were treated with drug, washed with PBS, heated to various temperatures in a thermocycler, cooled to room temperature, lysed by three rounds of freeze-thaw, and then clarified lystaes were subjected to immunoblot analysis.

BRD4 bromodomain 1 (BD1) = biological target: T3, BRD4 bromodomain 1 (BD1) (Homo sapiens, UniProt O60885); experiment: BRD4 (BD1)-H4 tetra-acetylated HTRF histone-binding assay
T3 construct: Selectivity against BRD4 bromodomain 1 (BD1), measured by HTRF; His; purchased Cayman 11720
Protocol: as §1, §2

[2] = ENL (YEATS)-H3K27cr HTRF (IC50, μM), Table 1
[3] = ENL (YEATS)-H3K27cr HTRF (IC50, μM), Table 2

Structure (SMILES) | IC50 [1, 2] [µM] | IC50 [1, 3] [µM] | IC50 (ENL(YEATS)-HiBiT) [µM] | IC50 (BRD4 bromodomain 1 (BD1); Table 1) [µM] | IC50 (BRD4 bromodomain 1 (BD1); Table 2) [µM] | IC50 ([1]; read-out: ENL (YEATS)-H3K27cr HTRF (IC50), Table 2) [µM]
O=C(NC1CC(O)C1)c1ccc2nc(-c3ccccc3)cn2c1 (stereo not drawn) [Compound 76] | > 50 | > 50 | 35.4 |  |  | 
C#CC1CC(NC(=O)c2ccc3nc(-c4ccccc4)cn3c2)C1 (stereo not drawn) [Compound 117] | 10 | 10 | 19 |  |  | 
O=C(N[C@@H]1CCc2ccccc21)c1ccc2nc(-c3ccccc3)cn2c1 [Compound 74] | 2.29 | 2.29 | 8.9 |  |  | 
CC(NC(=O)c1ccc2nc(-c3ccccc3)cn2c1)c1ccncc1 (stereo not drawn) [Compound 24] | 12 | 12 | 80 | > 50 | > 50 | 
O=C(NC1CC(CO)C1)c1ccc2nc(-c3ccccc3)cn2c1 (stereo not drawn) [Compound 85] | 21.3 | 21.3 | 25.6 |  |  | 
N#Cc1ccc(-c2cn3cc(C(=O)NC4CCC4)ccc3n2)cc1 [Compound 86] | 1.3 | 1.3 | 2.51 |  |  | 
O=C(NCc1cccnc1)c1ccc2nc(-c3ccccc3)cn2c1 [Compound 9] | 6.8 | 6.8 | 80 | > 50 | > 50 | 
O=C(NC1COC1)c1ccc2nc(-c3ccccc3)cn2c1 [Compound 70] | > 50 | > 50 | 27.3 |  |  | 
Cc1ccc(-c2cn3cc(C(=O)NC4CCC4)ccc3n2)cc1 [Compound 71] | 1.17 | 1.17 | 5.52 |  |  | 
COC[C@@H]1CC[C@H]1NC(=O)c1ccc2nc(-c3ccccc3)cn2c1 [Compound 121] | 13 | 13 | 23 |  |  | 
O=C(N[C@@H]1CC[C@H]1O)c1ccc2nc(-c3ccccc3)cn2c1 [Compound 124] | 21 | 21 | 56 |  |  | 
CO[C@@H]1CC[C@H]1NC(=O)c1ccc2nc(-c3ccccc3)cn2c1 [Compound 126] | 61 | 61 | 22 |  |  | 
O=C(NC1CCC1O)c1ccc2nc(-c3ccccc3)cn2c1 (stereo not drawn) [Compound 116] | 36 | 36 | 35 |  |  | 
C#C[C@H]1C[C@@H](NC(=O)c2ccc3nc(-c4ccccc4)cn3c2)C1 [Compound 122] | 6 | 6 | 19 |  |  | 
COC[C@@H]1CC[C@@H]1NC(=O)c1ccc2nc(-c3ccccc3)cn2c1 [Compound 127] | 58 | 58 | 32 |  |  | 
O=C(NC1CC2(CC2)C1)c1ccc2nc(-c3ccccc3)cn2c1 [Compound 118] | 0.723 | 0.723 | 7 |  |  | 

Further lines, results first:

IC50 [1, 2] [µM] | IC50 [1, 3] [µM] | IC50 (ENL(YEATS)-HiBiT) [µM] | IC50 (BRD4 bromodomain 1 (BD1); Table 1) [µM] | IC50 (BRD4 bromodomain 1 (BD1); Table 2) [µM] | IC50 ([1]; read-out: ENL (YEATS)-H3K27cr HTRF (IC50), Table 2) [µM] | Structure (SMILES)
0.243 | 0.243 | 6.14 |  |  |  | O=C(O)COC1CCN(CCC(=O)Nc2cccc(-c3cn4cc(C(=O)NC5CCC5)ccc4n3)c2)CC1 [Compound 111]
4.1 | 4.1 | 62 | > 50 | > 50 |  | CC(C)NC(=O)c1ccc2nc(-c3ccncc3)cn2c1 [Compound 5]
1.8 | 1.8 | 41 | > 50 | > 50 |  | O=C(NC1CCCC1)c1ccc2nc(-c3ccccc3)cn2c1 [Compound 23]
0.506 | 0.506 | 4.04 | > 50 | > 50 |  | O=C(NC1CCC1)c1ccc2nc(-c3ccccc3)cn2c1 [Compound 15]
1.3 | 1.3 | 80 | > 50 | > 50 |  | COc1ccc(-c2cn3cc(C(=O)NC(C)C)ccc3n2)cc1 [Compound 22]
2.6 | 2.6 | 80 | > 50 | > 50 |  | Cc1ccc(-c2cn3cc(C(=O)NC(C)C)ccc3n2)cc1 [Compound 14]
0.163 | 0.163 | 7.75 |  |  |  | CC1CCCCN1CCNS(=O)(=O)Nc1cccc(-c2cn3cc(C(=O)NC4CCC4)ccc3n2)c1 (stereo not drawn) [Compound 96]
0.05 | 0.05 | 0.742 |  |  |  | O=C(NC1CCC1)c1ccc2nc(-c3cccc(NS(=O)(=O)NCCN4CCC(O)CC4)c3)cn2c1 [Compound 99]
0.12 | 0.12 | 8.5 | > 50 | > 50 |  | CC(C)NC(=O)c1ccc2nc(-c3cccc(NS(=O)(=O)NCCc4c[nH]cn4)c3)cn2c1 [Compound 46]
0.101 | 0.101 | 12 |  |  |  | O=C(NC1CCC1)c1ccc2nc(-c3cccc(NS(=O)(=O)NCC(=O)N4CCCCC4)c3)cn2c1 [Compound 98]
4.8 | 4.8 | 80 | > 50 | > 50 |  | Cc1cccc(-c2cn3cc(C(=O)NC(C)C)ccc3n2)c1 [Compound 17]
3.27 | 3.27 | 7.88 |  |  |  | COc1ccc(-c2cn3cc(C(=O)NC4CCC4)ccc3n2)cc1 [Compound 78]
33 | 33 | 80 | > 50 | > 50 |  | Cc1ccccc1-c1cn2cc(C(=O)NC(C)C)ccc2n1 [Compound 26]
24 | 24 | 80 | > 50 | > 50 |  | COc1cccc(-c2cn3cc(C(=O)NC(C)C)ccc3n2)c1 [Compound 20]
0.43 | 0.43 |  | > 50 | > 50 |  | CC(C)NC(=O)c1ccc2nc(-c3cccc(NS(=O)(=O)NCCO)c3)cn2c1 [Compound 57]
0.206 | 0.206 | 2.8 |  |  |  | O=C(NC1CCC1)c1ccc2nc(-c3cccc(NS(=O)(=O)NCCN4CCC(F)(F)CC4)c3)cn2c1 [Compound 97]
 |  |  | > 50 | > 50 | 13 | CC(C)NC(=O)c1ccc2nc(-c3ccc(N=S(=O)(F)F)cc3)cn2c1 [Compound 41, (4-(6-(isopropylcarbamoyl)imidazo[1,2-a]pyridin-2-yl)phenyl)sulfurimidoyl difluoride]
0.37 | 0.37 |  | > 50 | > 50 |  | CC(C)NC(=O)c1ccc2nc(-c3cccc(NS(=O)(=O)NCc4ccc(O)cc4)c3)cn2c1 [Compound 47]
0.34 | 0.34 |  | > 50 | > 50 |  | CC(C)NC(=O)c1ccc2nc(-c3cccc(NS(=O)(=O)NCCCN4CCCC4)c3)cn2c1 [Compound 64]
0.56 | 0.56 |  | > 50 | > 50 |  | CC(C)NC(=O)c1ccc2nc(-c3cccc(NS(=O)(=O)NCCCO)c3)cn2c1 [Compound 44]
2.8 | 2.8 |  | > 50 | > 50 |  | CC(C)NC(=O)c1ccc2nc(-c3ccc([N+](=O)[O-])cc3)cn2c1 [Compound 37]
